The values that follow are results of earlier work, collected in patent US7935730B2, “Method of enhancing reproductive function of mammals by feeding of conjugated linoleic acids” (Cornell Research Foundation, Inc., priority 2006, dated 2011).

Structures are written as SMILES.

The conditions of series [1]: in vivo.
For another series, the system named is young rodents. Particulars: proposed.

For `CCCCCC/C=C/C=C\CCCCCCCC(=O)O` [cis-9, trans-11 CLA], in series [1], the “effect on milk and body fat” value is listed as “no effect”. In addition, the “feed efficiency and growth” value in the series with young rodents is given as “enhance”. Turning to `CCCCC/C=C\C=C\CCCCCCCCC(=O)O` [trans-10, cis-12 CLA], in series [1], the “effect on milk and body fat” value is listed as “reduction”.
